Experimental data published in the NIST ThermoML archive (doi:10.1016/j.jct.2008.12.010).

What was measured:
[1] = for speed of sound / mass density: 101.33 kPa, Liquid; for speed of sound: Linear variable-path acoustic interferometer; for mass density: Vibrating tube method; for surface tension liquid-gas: Drop volume
[2] = xn = mol fraction of the nth substance listed; conditions: for surface tension liquid-gas: 298.15 K, Drop volume; for speed of sound / mass density: 303.15 K, Liquid; for speed of sound: Linear variable-path acoustic interferometer; for mass density: Vibrating tube method

Cc1ccc(C)cc1 [1,4-dimethylbenzene]
[1]
Conditions | mass density [kg/m3] | speed of sound [m/s] | surface tension liquid-gas [mN/m]
288.15 K | 865.2 | 1350.7 | –
293.15 K | 860.9 | 1329.6 | –
298.15 K | 856.58 | 1308.4 | 27.43
303.15 K | 852.21 | 1287.4 | –
308.15 K | 847.83 | 1266.4 | –

CCCCCCCCCC [decane]
[1]
Conditions | mass density [kg/m3] | speed of sound [m/s] | surface tension liquid-gas [mN/m]
288.15 K | 733.62 | 1274.4 | –
293.15 K | 729.86 | 1254.8 | –
298.15 K | 726.09 | 1234.7 | 23.1
303.15 K | 722.3 | 1214.7 | –
308.15 K | 718.51 | 1194.9 | –

CCOC(=O)OCC [diethyl carbonate]
[1]
Conditions | mass density [kg/m3] | speed of sound [m/s] | surface tension liquid-gas [mN/m]
288.15 K | 980.4 | 1218 | –
293.15 K | 974.81 | 1197.7 | –
298.15 K | 969.19 | 1176.9 | 25.43
303.15 K | 963.6 | 1156.3 | –
308.15 K | 957.92 | 1135.8 | –

CCOC(=O)OCC [diethyl carbonate] + CCCCCCCCCC
[2]
Conditions | mass density [kg/m3] | speed of sound [m/s] | surface tension liquid-gas [mN/m]
x1 = 0.0495 | 729.09 | 1207.8 | –
x1 = 0.04972 | – | – | 22.98
x1 = 0.09861 | 736.12 | 1201.1 | –
x1 = 0.09958 | – | – | 22.89
x1 = 0.1979 | 751.5 | 1188.8 | –
x1 = 0.1989 | – | – | 22.86
x1 = 0.2966 | – | – | 22.84
x1 = 0.3012 | 769.28 | 1177.8 | –
x1 = 0.3959 | – | – | 22.89
x1 = 0.3995 | 788 | 1168.5 | –
x1 = 0.504 | 810.31 | 1160.2 | –
x1 = 0.5144 | – | – | 22.97
x1 = 0.5477 | 820.39 | 1157.2 | –
x1 = 0.5568 | – | – | 22.98
x1 = 0.5996 | – | – | 23.04
x1 = 0.6015 | 833.53 | 1153.9 | –
x1 = 0.699 | 859.54 | 1149.6 | –
x1 = 0.7 | – | – | 23.24
x1 = 0.7887 | – | – | 23.58
x1 = 0.799 | 889.41 | 1147.7 | –
x1 = 0.8986 | – | – | 24.27
x1 = 0.9002 | 924.32 | 1149.1 | –
x1 = 0.95 | 943.19 | 1151.4 | –
x1 = 0.9516 | – | – | 24.76
